Reference: US6355799B1, “Substituted benzene compounds, process for their preparation, and herbicidal and defoliant compositions containing them” (ISK Americas Incorporated, priority 1997, dated 2002)

Columns and labels:
Assay type in all cases: in vivo
[1] = tested on: field corn (Zea mays L., var. Dekalb 535, CORN); experiment: Pre-emerge test, crop safety; details: for Pre-emerge phytotoxicity rating (0-100), crop damage, CORN: rated 14 days after application, 0 = no damage, 100 = complete death; for phytotoxicity rating CORN (crop damage): pre-emerge, 14 days after application, scale 0-100
In short: (§1)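 Sandy loam pots; pre-emerge: sown 1 d pre-spray, surface-watered after, then bottom-watered. Post-emerge: sown 8–21 d before, 2–3 leaf stage, + 0.25% v/v NIS, bottom-watered. Acetone, 187 l/ha track spray, 15–1000 g ai/ha. 0–100 injury score, day 14.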

[2] = tested on: upland rice (Oryza sp., var. Tebonnet, RICE); experiment: Pre-emerge test, crop safety; details: for Pre-emerge phytotoxicity rating (0-100), crop damage, RICE: rated 14 days after application, 0 = no damage, 100 = complete death; for phytotoxicity rating RICE (crop damage): pre-emerge, 14 days after application, scale 0-100
In short: as §1

[3] = tested on: field corn (Zea mays L., var. Dekalb 535, CORN); experiment: Post-emerge test, crop safety; details: post-emerge, 14 days after application, rating scale 0-100
In short: (§2)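 Visual ratings on a 0-100 scale (0 no damage, 100 all plants dead) were taken at 14 days after treatment. Rates of 15-1000 g ai/ha in acetone, 187 l/ha, were sprayed onto soil one day after planting (pre-emerge) or onto 2-3 leaf plants with 0.25% v/v surfactant (post-emerge).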

[4] = tested on: upland rice (Oryza sp., var. Tebonnet, RICE); experiment: Post-emerge test, crop safety; details: post-emerge, 14 days after application, rating scale 0-100
In short: as §2

[5] = tested on: large crabgrass (Digitaria sanguinalis, DIGSA); experiment: Post-emerge test, greenhouse herbicide activity screening; details: post-emerge, 14 days after application, rating scale 0-100
In short: (§3)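 Rating: 0–100 visual injury, 14 DAA. Application: acetone, 187 l/ha, 15–1000 g ai/ha, flat-fan track sprayer with nozzle 40–45 cm above soil or canopy. Post-emerge runs used 0.25% v/v surfactant on 2–3 leaf plants.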

[6] = tested on: green foxtail (Setaria viridis, SETVI); experiment: as above; details: post-emerge, 14 days after application, rating scale 0-100
In short: as §3

[7] = tested on: sicklepod (Cassia obtusifolia, CASOB); experiment: as above; details: post-emerge, 14 days after application, rating scale 0-100
In short: as §3

[8] = tested on: barnyardgrass (Echinochloa crus-galli, ECHCG); experiment: as above; details: post-emerge, 14 days after application, rating scale 0-100
In short: as §3

[9] = tested on: velvetleaf (Abutilon theophrasti, ABUTH); experiment: as above; details: post-emerge, 14 days after application, rating scale 0-100
In short: as §3

[10] = tested on: redroot pigweed (Amaranthus retroflexus, AMARE); experiment: as above; details: post-emerge, 14 days after application, rating scale 0-100
In short: as §3

[11] = tested on: ivyleaf morningglory (Ipomoea hederacea, IPOHE); experiment: as above; details: post-emerge, 14 days after application, rating scale 0-100
In short: as §3

[12] = tested on: johnsongrass (Sorghum halepense, SORHA); experiment: as above; details: post-emerge, 14 days after application, rating scale 0-100
In short: as §3

[13] = tested on: lambsquarters (Chenopodium album, CHEAL); experiment: as above; details: post-emerge, 14 days after application, rating scale 0-100
In short: as §3

[14] = tested on: redroot pigweed (Amaranthus retroflexus, AMARE); experiment: Pre-emerge test, greenhouse herbicide activity screening; details: for Pre-emerge Herbicidal Activity, phytotoxicity rating (0-100), AMARE: rated 14 days after application, 0 = no damage, 100 = complete death; for phytotoxicity rating AMARE: pre-emerge, 14 days after application, scale 0-100
In short: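 Herbicidal damage is scored 0 (none) to 100 (complete plant death) two weeks after a simulated field spray. Rates span 15–1000 g ai/ha, delivered in acetone at 187 l/ha. For post-emergence treatments, plants have 2–3 leaves and the spray carries 0.25% v/v non-ionic surfactant.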

[15] = tested on: large crabgrass (Digitaria sanguinalis, DIGSA); experiment: as above; details: for Pre-emerge Herbicidal Activity, phytotoxicity rating (0-100), DIGSA: rated 14 days after application, 0 = no damage, 100 = complete death; for phytotoxicity rating DIGSA: pre-emerge, 14 days after application, scale 0-100
In short: as §2

[16] = tested on: green foxtail (Setaria viridis, SETVI); experiment: as above; details: for Pre-emerge Herbicidal Activity, phytotoxicity rating (0-100), SETVI: rated 14 days after application, 0 = no damage, 100 = complete death; for phytotoxicity rating SETVI: pre-emerge, 14 days after application, scale 0-100
In short: as §2

[17] = tested on: sicklepod (Cassia obtusifolia, CASOB); experiment: as above; details: for Pre-emerge Herbicidal Activity, phytotoxicity rating (0-100), CASOB: rated 14 days after application, 0 = no damage, 100 = complete death; for phytotoxicity rating CASOB: pre-emerge, 14 days after application, scale 0-100
In short: as §2

[18] = tested on: barnyardgrass (Echinochloa crus-galli, ECHCG); experiment: as above; details: for Pre-emerge Herbicidal Activity, phytotoxicity rating (0-100), ECHCG: rated 14 days after application, 0 = no damage, 100 = complete death; for phytotoxicity rating ECHCG: pre-emerge, 14 days after application, scale 0-100
In short: as §2

[19] = tested on: velvetleaf (Abutilon theophrasti, ABUTH); experiment: as above; details: for Pre-emerge Herbicidal Activity, phytotoxicity rating (0-100), ABUTH: rated 14 days after application, 0 = no damage, 100 = complete death; for phytotoxicity rating ABUTH: pre-emerge, 14 days after application, scale 0-100
In short: as §2

[20] = tested on: ivyleaf morningglory (Ipomoea hederacea, IPOHE); experiment: as above; details: for Pre-emerge Herbicidal Activity, phytotoxicity rating (0-100), IPOHE: rated 14 days after application, 0 = no damage, 100 = complete death; for phytotoxicity rating IPOHE: pre-emerge, 14 days after application, scale 0-100
In short: as §2

[21] = tested on: johnsongrass (Sorghum halepense, SORHA); experiment: as above; details: for Pre-emerge Herbicidal Activity, phytotoxicity rating (0-100), SORHA: rated 14 days after application, 0 = no damage, 100 = complete death; for phytotoxicity rating SORHA: pre-emerge, 14 days after application, scale 0-100
In short: as §2

[22] = tested on: lambsquarters (Chenopodium album, CHEAL); experiment: as above; details: for Pre-emerge Herbicidal Activity, phytotoxicity rating (0-100), CHEAL: rated 14 days after application, 0 = no damage, 100 = complete death; for phytotoxicity rating CHEAL: pre-emerge, 14 days after application, scale 0-100
In short: as §2

COc1c(Cl)cc(F)c(-n2c(=O)cc(C(F)(F)F)n(C)c2=O)c1NC(=O)C(=O)c1ccccc1 [2-121]
Pre-emerge phytotoxicity rating (0-100), crop damage, CORN ([1]; 63 g ai/ha): 0
Pre-emerge phytotoxicity rating (0-100), crop damage, CORN ([1]; 250 g ai/ha): 10
Pre-emerge phytotoxicity rating (0-100), crop damage, RICE ([2]; 63 g ai/ha): 0
Pre-emerge phytotoxicity rating (0-100), crop damage, RICE ([2]; 250 g ai/ha): 0
phytotoxicity rating CORN ([3]; 63 g ai/ha): 10
phytotoxicity rating CORN ([3]; 250 g ai/ha): 20
phytotoxicity rating RICE ([4]; 63 g ai/ha): 15
phytotoxicity rating RICE ([4]; 250 g ai/ha): 25
phytotoxicity rating DIGSA ([5]; 63 g ai/ha): 0
phytotoxicity rating DIGSA ([5]; 250 g ai/ha): 10
phytotoxicity rating SETVI ([6]; 63 g ai/ha): 0
phytotoxicity rating SETVI ([6]; 250 g ai/ha): 20
phytotoxicity rating CASOB ([7]; 63 g ai/ha): 10
phytotoxicity rating CASOB ([7]; 250 g ai/ha): 60
phytotoxicity rating ECHCG ([8]; 63 g ai/ha): 0
phytotoxicity rating ECHCG ([8]; 250 g ai/ha): 0
phytotoxicity rating ABUTH ([9]; 63 g ai/ha): 70
phytotoxicity rating ABUTH ([9]; 250 g ai/ha): 100
phytotoxicity rating AMARE ([10]; 63 g ai/ha): 90
phytotoxicity rating AMARE ([10]; 250 g ai/ha): 100
phytotoxicity rating IPOHE ([11]; 63 g ai/ha): 100
phytotoxicity rating IPOHE ([11]; 250 g ai/ha): 100
phytotoxicity rating SORHA ([12]; 63 g ai/ha): 0
phytotoxicity rating SORHA ([12]; 250 g ai/ha): 10
phytotoxicity rating CHEAL ([13]; 63 g ai/ha): 60
phytotoxicity rating CHEAL ([13]; 250 g ai/ha): 80
Pre-emerge Herbicidal Activity, phytotoxicity rating (0-100), AMARE ([14]; 63 g ai/ha): 100
Pre-emerge Herbicidal Activity, phytotoxicity rating (0-100), AMARE ([14]; 250 g ai/ha): 100
Pre-emerge Herbicidal Activity, phytotoxicity rating (0-100), DIGSA ([15]; 63 g ai/ha): 0
Pre-emerge Herbicidal Activity, phytotoxicity rating (0-100), DIGSA ([15]; 250 g ai/ha): 30
Pre-emerge Herbicidal Activity, phytotoxicity rating (0-100), SETVI ([16]; 63 g ai/ha): 0
Pre-emerge Herbicidal Activity, phytotoxicity rating (0-100), SETVI ([16]; 250 g ai/ha): 60
Pre-emerge Herbicidal Activity, phytotoxicity rating (0-100), CASOB ([17]; 63 g ai/ha): 0
Pre-emerge Herbicidal Activity, phytotoxicity rating (0-100), CASOB ([17]; 250 g ai/ha): 50
Pre-emerge Herbicidal Activity, phytotoxicity rating (0-100), ECHCG ([18]; 63 g ai/ha): 0
Pre-emerge Herbicidal Activity, phytotoxicity rating (0-100), ECHCG ([18]; 250 g ai/ha): 0
Pre-emerge Herbicidal Activity, phytotoxicity rating (0-100), ABUTH ([19]; 63 g ai/ha): 100
Pre-emerge Herbicidal Activity, phytotoxicity rating (0-100), ABUTH ([19]; 250 g ai/ha): 100
Pre-emerge Herbicidal Activity, phytotoxicity rating (0-100), IPOHE ([20]; 63 g ai/ha): 0
Pre-emerge Herbicidal Activity, phytotoxicity rating (0-100), IPOHE ([20]; 250 g ai/ha): 90
Pre-emerge Herbicidal Activity, phytotoxicity rating (0-100), SORHA ([21]; 63 g ai/ha): 0
Pre-emerge Herbicidal Activity, phytotoxicity rating (0-100), SORHA ([21]; 250 g ai/ha): 0
Pre-emerge Herbicidal Activity, phytotoxicity rating (0-100), CHEAL ([22]; 63 g ai/ha): 80
Pre-emerge Herbicidal Activity, phytotoxicity rating (0-100), CHEAL ([22]; 250 g ai/ha): 100

COc1c(Cl)cc(F)c(-n2c(=O)cc(C(F)(F)F)n(C)c2=O)c1NC(=O)c1c(C)cccc1C [2-124]
phytotoxicity rating CORN (crop damage) ([1]; 63 g ai/ha): 0
phytotoxicity rating CORN (crop damage) ([1]; 250 g ai/ha): 0
phytotoxicity rating RICE (crop damage) ([2]; 63 g ai/ha): 0
phytotoxicity rating RICE (crop damage) ([2]; 250 g ai/ha): 10
CORN phytotoxicity rating (crop damage) ([3]; 63 g ai/ha): 0
CORN phytotoxicity rating (crop damage) ([3]; 250 g ai/ha): 5
RICE phytotoxicity rating (crop damage) ([4]; 63 g ai/ha): 0
RICE phytotoxicity rating (crop damage) ([4]; 250 g ai/ha): 0
DIGSA phytotoxicity rating ([5]; 63 g ai/ha): 0
DIGSA phytotoxicity rating ([5]; 250 g ai/ha): 0
SETVI phytotoxicity rating ([6]; 63 g ai/ha): 0
SETVI phytotoxicity rating ([6]; 250 g ai/ha): 0
CASOB phytotoxicity rating ([7]; 63 g ai/ha): 0
CASOB phytotoxicity rating ([7]; 250 g ai/ha): 20
ECHCG phytotoxicity rating ([8]; 63 g ai/ha): 0
ECHCG phytotoxicity rating ([8]; 250 g ai/ha): 0
ABUTH phytotoxicity rating ([9]; 63 g ai/ha): 40
ABUTH phytotoxicity rating ([9]; 250 g ai/ha): 95
AMARE phytotoxicity rating ([10]; 63 g ai/ha): 30
AMARE phytotoxicity rating ([10]; 250 g ai/ha): 90
IPOHE phytotoxicity rating ([11]; 63 g ai/ha): 20
IPOHE phytotoxicity rating ([11]; 250 g ai/ha): 30
SORHA phytotoxicity rating ([12]; 63 g ai/ha): 0
SORHA phytotoxicity rating ([12]; 250 g ai/ha): 0
CHEAL phytotoxicity rating ([13]; 63 g ai/ha): 30
CHEAL phytotoxicity rating ([13]; 250 g ai/ha): 50
phytotoxicity rating AMARE ([14]; 63 g ai/ha): 40
phytotoxicity rating AMARE ([14]; 250 g ai/ha): 100
phytotoxicity rating DIGSA ([15]; 63 g ai/ha): 0
phytotoxicity rating DIGSA ([15]; 250 g ai/ha): 0
phytotoxicity rating SETVI ([16]; 63 g ai/ha): 0
phytotoxicity rating SETVI ([16]; 250 g ai/ha): 10
phytotoxicity rating CASOB ([17]; 63 g ai/ha): 0
phytotoxicity rating CASOB ([17]; 250 g ai/ha): 20
phytotoxicity rating ECHCG ([18]; 63 g ai/ha): 0
phytotoxicity rating ECHCG ([18]; 250 g ai/ha): 0
phytotoxicity rating ABUTH ([19]; 63 g ai/ha): 0
phytotoxicity rating ABUTH ([19]; 250 g ai/ha): 80
phytotoxicity rating IPOHE ([20]; 63 g ai/ha): 0
phytotoxicity rating IPOHE ([20]; 250 g ai/ha): 20
phytotoxicity rating SORHA ([21]; 63 g ai/ha): 0
phytotoxicity rating SORHA ([21]; 250 g ai/ha): 0
phytotoxicity rating CHEAL ([22]; 63 g ai/ha): 20
phytotoxicity rating CHEAL ([22]; 250 g ai/ha): 80
